Laboratory results taken from patent publication US11000516B2 (priority 2015, dated 2021).

Assays:
DENV2 strain #036 = assay: Non-lethal mouse model with CELADEN strain; assay type: in vivo, mice
Procedure: (§1) EDEN1, EDEN2 and S221 were used as control virus strains. The MOI of each strain was indicated in supplementary FIG. 2. After 48 hours pi, virus titer in the supernatants was determined by standard plaque assay using BHK-21 cells. The percentages of virus titer were calculated based on virus infection control of each strain. Error bars indicate standard deviations from duplicate experiments. (B and C) Mice were inoculated i.v. with DENV2 strains, #031 (2×10^7 pfu), #013 (1×10^7 pfu) or #036 (2×10^7 pfu). […] Average viral copy numbers on day 1-2 were measured using mixed serum of each group. Viral copy number on day 3 was measured individually and the graphs show the average results with standard deviations. A P value less than 0.05 was considered significant (*P<0.05). […] Viral copy number on day 3-6 was measured individually and shown in the graphs as the average results with standard deviations. The VLR from day 3 to day 6 was also shown as the mean value and standard deviations. The number of mice per group is 6.
(§2) Since infection levels in HuH-7 cells are different among the strains, the MOI of each strain was varied to obtain similar levels of virus titer in the supernatant (FIG. 8).

DENV2 strain #013 = assay: Non-lethal mouse model with CELADEN strain; assay type: in vivo, mice
Procedure: as §1, §2

DENV2 strain #031 = assay: Non-lethal mouse model with CELADEN strain; assay type: in vivo, mice
Procedure: as §1, §2

[1] = tested on: EDEN2 (clinical DENV2 isolate); assay: Antiviral effect in Vero cells, plaque assay of supernatant 48 h pi; assay type: cell-based; settings: Dengue virus, DENV2, Vero
Procedure: (§3) Cells were infected with DENV strains for 1 hour at 37° C. and washed once with culture media. […] The supernatants were subjected to standard plaque assay and the EC50 values were determined using the GraphPad Prism software.
(§4) NITD008, an adenosine analog inhibitor of DENV polymerase (Yin et al., 2009) was used as a positive control.

[2] = tested on: S221 (mouse-adapted DENV2 strain); assay: as above; assay type: cell-based; settings: S221, MOI 0.3
Procedure: as §3, §4

[3] = tested on: EDEN1 (clinical DENV1 isolate); assay: as above; assay type: cell-based
Procedure: as §3, §4

[4] = tested on: EDEN2 (clinical DENV2 isolate); assay: Antiviral effect in HuH-7 cells, plaque assay of supernatant 48 h pi; assay type: cell-based
Procedure: as §3, §4

[5] = tested on: S221 (mouse-adapted DENV2 strain); assay: as above; assay type: cell-based
Procedure: as §3, §4

[6] = tested on: EDEN1 (clinical DENV1 isolate); assay: as above; assay type: cell-based
Procedure: as §3, §4

S221 = assay: Lethal ADE infection model in AG129 mice (4G2 Ab pre-injection); assay type: in vivo
Procedure: (§5) AG129 mice were inoculated i.v. with EDEN1 (7×10^7 pfu), EDEN2 (1×10^8 pfu) or S221 (2×10^4 pfu) for non-lethal infection. For the ADE infection (lethal), mice were pre-injected i.p. with 50 μg (for EDEN1 and EDEN2) or 10 μg (for S221) 4G2 Ab one day prior to infection. (A) Mouse survival rate was monitored by day 10 pi. (B) Blood samples were collected on days 1-8 pi and mixed serum from each group were subjected to real-time RT-PCR to obtain the average viral genome copy numbers. (C) Serum levels of TNFα and IL-6 were measured by ELISA assay. The numbers of mice per group are 6 (EDEN1) or 5 (EDEN2 and S221).
(§6) AG129 mice were pre-injected i.p. with 50 μg (for EDEN1 and EDEN2) or 10 μg (for S221) 4G2 Ab followed by next day inoculation i.v. with EDEN1 (7×10^7 pfu), EDEN2 (1×10^8 pfu) or S221 (2×10^4 pfu). […] (A) Mouse survival rate was monitored by day 10 pi. (B) Blood samples were collected on day 1-4 pi and mixed serum from each group were subjected to real-time RT PCR to obtain the average viral genome copy numbers (left panels). […] A P value less than 0.05 was considered significant (*P<0.05). The number of mice per group is 5.
as §6, with “with” for “with 50 μg (for EDEN1 and EDEN2) or 10 μg (for S221)”, “with EDEN1,” for “with EDEN1 (7×10^7 pfu),”, “EDEN2” for “EDEN2 (1×10^8 pfu)”, “S221 as described above.” for “S221 (2×10^4 pfu).”, “on days” for “on day”, “is 6.” for “is 5.”
(§7) AG129 mouse models of clinical DENV strains, EDEN1 and EDEN2, in addition to mouse-adapted S221 strain were developed. To increase infection level in mice, high virus titer of EDEN1 (7×10^7 pfu) and EDEN2 (1×10^8 pfu) were inoculated intravenously (iv) into AG129 mice.

EDEN1 = assay: as above; assay type: in vivo
Procedure: as §5, §6
as §6, with “with” for “with 50 μg (for EDEN1 and EDEN2) or 10 μg (for S221)”, “with EDEN1,” for “with EDEN1 (7×10^7 pfu),”, “EDEN2” for “EDEN2 (1×10^8 pfu)”, “S221 as described above.” for “S221 (2×10^4 pfu).”, “on days” for “on day”, “is 6.” for “is 5.”
as §7

EDEN2 = assay: as above; assay type: in vivo
Procedure: as §5, §6
as §6, with “with” for “with 50 μg (for EDEN1 and EDEN2) or 10 μg (for S221)”, “with EDEN1,” for “with EDEN1 (7×10^7 pfu),”, “EDEN2” for “EDEN2 (1×10^8 pfu)”, “S221 as described above.” for “S221 (2×10^4 pfu).”, “on days” for “on day”, “is 6.” for “is 5.”
as §7

DENV2 = assay: Survival of DENV2 infected mice in a lethal ADE model of viremia (FIG. 5B); assay type: in vivo
Procedure: Survival at day 12 was 1/8 (13%) at 10 mg/kg twice daily (BID), 5/8 (63%) at 25 mg/kg BID, 7/7 (100%) at 50 mg/kg BID, and 0/8 (0%) at 100 mg/kg once daily (QD).

CCCC(=O)O[C@H]1CN2CC[C@H](O)[C@@H]2[C@@H](O)[C@@H]1O [celgosivir]
viremia reduction on day 3 pi (DENV2 strain #036; #036, 50 mg/kg BID from time of infection): 12.5 fold | VLR from day 3 to day 6 (DENV2 strain #036; #036, 50 mg/kg BID started during peak viremia (day 3)): 2.14 | viremia reduction on day 3 pi (DENV2 strain #013; #013, 50 mg/kg BID from time of infection): 6.8 fold | VLR from day 3 to day 6 (DENV2 strain #013; #013, 50 mg/kg BID started during peak viremia (day 3)): 2.32 | viremia reduction on day 3 pi (DENV2 strain #031; #031, 50 mg/kg BID from time of infection): 7.8 fold | VLR from day 3 to day 6 (DENV2 strain #031; #031, 50 mg/kg BID started during peak viremia (day 3)): 2.63 | EC50 ([1]; EDEN2, MOI 0.3): 2430 nM | EC50 ([1]; EDEN2, MOI 0.3 (text)): 2400 nM | EC50 ([2]; Dengue virus, DENV2, Vero): 8.3 µM | EC50 [2]: 8.34 µM | EC50 ([3]; EDEN1, MOI 0.01): 13.8 µM | EC50 ([3]; EDEN1, MOI 0.3): 51 µM | EC50 ([4]; Dengue virus, DENV2, Huh-7, HuH-7, EDEN2, MOI 0.3): 820 nM | EC50 ([4]; HuH-7, EDEN2, MOI 0.3): 824 nM | EC50 ([5]; Dengue virus, DENV2, Huh-7, HuH-7, S221, MOI 0.3): 5.1 µM | EC50 ([5]; HuH-7, S221, MOI 0.3): 5.09 µM | EC50 ([6]; HuH-7, EDEN1, MOI 0.01): 5.96 µM | EC50 ([6]; HuH-7, EDEN1, MOI 0.3): 17.4 µM | EC50 ([6]; Huh-7, HuH-7, EDEN1, MOI 0.01): 6 µM | EC50 ([6]; Huh-7, HuH-7, EDEN1, MOI 0.3): 17.4 µM | protection from death (survival) (S221; S221, 10 mg/kg BID from time of infection): could not protect mice from death | protection from lethal infection (survival) (S221; S221, 50 mg/kg BID orally from time of infection): completely protected mice from lethal infection | viremia reduction versus VC on day 3 (S221; S221, lethal ADE model, 10 mg/kg BID from day 0): 1.4 fold | lower viremia level than vehicle control on day 3 pi (S221; S221, lethal ADE model, 50 mg/kg BID from day 0): 2.4 fold | protection from death (survival) (EDEN1; EDEN1, 10 mg/kg BID from time of infection): could not protect mice from death | viremia reduction versus VC on day 3 (EDEN1; EDEN1, lethal ADE model, 10 mg/kg BID from day 0): 1.8 fold | lower viremia level than vehicle control on day 3 pi (EDEN1; EDEN1, lethal ADE model, 50 mg/kg BID from day 0): 4.3 fold | protection from death (survival) (EDEN2; EDEN2, 10 mg/kg BID from time of infection): 100% | viremia reduction versus VC on day 3 (EDEN2; EDEN2, lethal ADE model, 10 mg/kg BID from day 0): 3.7 fold | lower viremia level than vehicle control on day 3 pi (EDEN2; EDEN2, lethal ADE model, 50 mg/kg BID from day 0): 16.5 fold | Survival at day 12 (DENV2; 10 mg/kg twice daily (BID)): 13% | Survival at day 12 (DENV2; 25 mg/kg BID): 63% | Survival at day 12 (DENV2; 50 mg/kg BID): 100% | Survival at day 12 (DENV2; 100 mg/kg once daily (QD)): 0%
